The MIC90 is the lowest concentration that inhibits either 90% of growth or 90% of the strains tested, depending on the study. Low values mean higher susceptibility, high ones lower susceptibility. In general, Kd refers to the concentration at which binding is half-saturated. Lower therefore signals higher affinity. What is called MIC99 is the lowest concentration that inhibits either 99% of growth or 99% of the strains tested, depending on the study. Lower therefore signals higher susceptibility.

In brackets after ≈: the same amount, converted by molar mass.

Results on eleven compounds are retold here after ChEMBL document CHEMBL3612042 (J Med Chem, 2015).

Data set [1] has as its system Mycobacterium tuberculosis. Description: Antibacterial activity against Mycobacterium tuberculosis H37Rv measured at 10 to 14 days by broth microdilution method. It is filed as functional.
The subject of data set [2] is Mycobacterium tuberculosis H37Rv. Description: Drug uptake in Mycobacterium tuberculosis H37Rv at 25 uM after 24 hrs by LC-MS/MS analysis. It is filed as ADME, organism-based.
The target in data set [3] is T1, Biotin--[acetyl-CoA-carboxylase] ligase (Mycobacterium tuberculosis (strain ATCC 25618 / H37Rv), UniProt I6YFP0).
T1 sequence (I6YFP0 whole entry): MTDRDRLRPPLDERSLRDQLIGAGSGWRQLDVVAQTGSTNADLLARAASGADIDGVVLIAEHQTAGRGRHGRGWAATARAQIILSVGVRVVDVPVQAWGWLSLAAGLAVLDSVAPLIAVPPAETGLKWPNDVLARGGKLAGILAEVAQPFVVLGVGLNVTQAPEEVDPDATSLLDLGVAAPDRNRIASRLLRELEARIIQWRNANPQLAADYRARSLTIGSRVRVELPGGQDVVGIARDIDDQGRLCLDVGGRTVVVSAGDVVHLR

The test system of data set [4] is Mycobacterium tuberculosis. Briefly: Antibacterial activity against Mycobacterium tuberculosis MDR4 measured at 7 to 14 days by broth microdilution method. In kind it is functional. Background: Dilution methods test growth across graded concentrations, often in twofold steps.
For data set [5], the system named is Mycobacterium tuberculosis. Briefly: Antibacterial activity against Mycobacterium tuberculosis MDR1 measured at 7 to 14 days by broth microdilution method. In kind it is functional.
Data set [6] relates to Mycobacterium tuberculosis. Description: Antibacterial activity against Mycobacterium tuberculosis MDR7 measured at 7 to 14 days by broth microdilution method. It is filed as functional.
The test system of data set [7] is Mycobacterium tuberculosis. Briefly: Antibacterial activity against Mycobacterium tuberculosis MDR2 measured at 7 to 14 days by broth microdilution method. In kind it is functional.
Data set [8] relates to Mycobacterium tuberculosis. Briefly: Antibacterial activity against Mycobacterium tuberculosis MDR5 measured at 7 to 14 days by broth microdilution method. In kind it is functional.
Data set [9] concerns Mycobacterium tuberculosis. Briefly: Antibacterial activity against Mycobacterium tuberculosis MDR8 measured at 7 to 14 days by broth microdilution method. In kind it is functional.
Data set [10] concerns Mycobacterium tuberculosis. Description: Antibacterial activity against Mycobacterium tuberculosis XDR1 measured at 7 to 14 days by broth microdilution method. It is filed as functional.
The subject of data set [11] is Mycobacterium tuberculosis. Briefly: Antibacterial activity against Mycobacterium tuberculosis XDR2 measured at 7 to 14 days by broth microdilution method. In kind it is functional.
For data set [12], the system named is Mycobacterium tuberculosis. Description: Antibacterial activity against Mycobacterium tuberculosis MDR3 measured at 7 to 14 days by broth microdilution method. In kind it is functional.
For data set [13], the system named is Mycobacterium tuberculosis. Description: Antibacterial activity against Mycobacterium tuberculosis MDR6 measured at 7 to 14 days by broth microdilution method. It is filed as functional.

The compound `CCN(CC)CC.Nc1ncnc2c1ncn2[C@@H]1O[C@H](CNS(=O)(=O)NC(=O)CCCC[C@@H]2SC[C@@H]3NC(=O)N[C@@H]32)[C@@H](O)[C@H]1F` came in with an MIC90 in [1] of 1.25 µM. The Drug uptake entry in data set [2] was “Active”. The compound also had a Kd in data set [3] of 0.614 nM.

With `Nc1ncnc2c1ncn2[C@@H]1C[C@H](CNS(=O)(=O)NC(=O)CCCC[C@@H]2SC[C@@H]3NC(=O)N[C@@H]32)[C@@H](O)[C@H]1O`, in data set [1], the MIC90 was > 100 µM. Moreover, the Kd in data set [3] is 0.753 nM.

Consider `Nc1ncnc2c1ncn2[C@@H]1O[C@H](CNS(=O)(=O)NC(=O)CCCC[C@@H]2SC[C@@H]3NC(=O)N[C@@H]32)[C@@H](O)[C@H]1O`, for which the MIC99 in data set [4], in [5], in data set [6], in data set [7], in data set [8] and in [9] was 0.16 µM (≈ 0.0915 µg/mL) each time. For the same compound, the MIC99 in [10], in data set [11], in data set [12] and in data set [13] was 0.16 µM (≈ 0.0915 µg/mL) in each case.

Compound `Nc1ncnc2c1ncn2[C@@H]1O[C@H](CNS(=O)(=O)NC(=O)CCCC[C@@H]2SC[C@@H]3NC(=O)N[C@@H]32)C[C@H]1O` returned an MIC90 in data set [1] of 0.78 µM (≈ 0.433 µg/mL). In data set [3], this compound returned a Kd of 0.592 nM.

Turning to `Nc1ncnc2c1ncn2[C@H]1C=C[C@@H](CNS(=O)(=O)NC(=O)CCCC[C@@H]2SC[C@@H]3NC(=O)N[C@@H]32)C1`, the MIC90 in data set [1] amounted to 3.12 µM (≈ 1.67 µg/mL). The Kd in [3] amounted to 2.14 nM.

In the case of `Nc1ncnc2c1ncn2[C@H]1CNC[C@@H](COS(=O)(=O)NC(=O)CCCC[C@@H]2SC[C@@H]3NC(=O)N[C@@H]32)O1`, in data set [1], the MIC90 turned out to be 3.12 µM (≈ 1.73 µg/mL). In addition, the affinity in [3], expressed as Kd, was 0.324 nM.

As to `CCN(CC)CC.Nc1ncnc2c1ncn2[C@@H]1O[C@H](COS(=O)(=O)NC(=O)CCCC[C@@H]2SC[C@@H]3NC(=O)N[C@@H]32)[C@@H](O)[C@@H]1F`, the MIC90 in data set [1] is 50 µM. In addition, in [2], the Drug uptake result is recorded as “Active”. Moreover, the Kd in data set [3] was 0.153 nM.

`Nc1ncnc2c1ncn2[C@H]1CC[C@@H](CNS(=O)(=O)NC(=O)CCCC[C@@H]2SC[C@@H]3NC(=O)N[C@@H]32)C1` registered an MIC90 in data set [1] of 1.56 µM (≈ 0.839 µg/mL). Moreover, in data set [3], binding was put at a Kd of 0.54 nM.

As to `Nc1ncnc2c1ncn2[C@@H]1O[C@H](CNS(=O)(=O)NC(=O)CCCC[C@@H]2SC[C@@H]3NC(=O)N[C@@H]32)[C@@H](O)[C@H]1N`, in data set [1], the MIC90 is 1.25 µM (≈ 0.713 µg/mL). The same compound registered a Kd in data set [3] of 0.627 nM.

In data set [1], `[N-]=[N+]=N[C@@H]1[C@H](O)[C@@H](CNS(=O)(=O)NC(=O)CCCC[C@@H]2SC[C@@H]3NC(=O)N[C@@H]32)O[C@H]1n1cnc2c(N)ncnc21` came in with an MIC90 of 3.12 µM (≈ 1.86 µg/mL). Further, the affinity in [3], expressed as Kd, was 0.933 nM.

As to `C[C@@]1(O)[C@H](O)[C@@H](COS(=O)(=O)NC(=O)CCCC[C@@H]2SC[C@@H]3NC(=O)N[C@@H]32)O[C@H]1n1cnc2c(N)ncnc21`, the MIC90 in data set [1] came to 50 µM (≈ 29.3 µg/mL). This compound yielded a Kd in data set [3] of 0.769 nM.
